Values joined by “and” are separate entries in the source; they are usually repeats but may differ in a detail not shown here. Identical values can stand only once. “Also recorded” adds a separate entry of the source.
Test system: western corn root worm larvae
Test: Glass bead Y-tube choice-test bioassay (Example 18)
Format: in vivo, Diabrotica virgifera virgifera LeConte
Settings: for CO2 selective response, choice between two concentrations: base 1, 2, 5, 10, 20 mmol/mol
Experimental: Bioassay Apparatus. The choice-test bioassay apparatus (FIG. 34) was constructed from a glass Y-tube filled with glass beads to simulate the thigmotactic cues of the soil environment that are ordinarily encountered by western corn root worm larvae. The glass Y-tube was fabricated by a local glassblower (9.5 mm inside diameter, 60° angles, with each branch 3 cm long), and clamped to a ring stand with 2 branches of the “Y” facing down. A glass connection tube (4 cm long, 0.5 cm diameter) with a piece of vinyl screen (2.5-mm mesh) held over 1 end by a 0.5-cm section of Teflon tubing (6 mm inside diameter) was inserted snugly into the end of each of the arms of the Y-tube to support the glass beads. Glass beads (3 mm, cat. no. 11-312A, Fisher Scientific, Pittsburgh, Pa.) were poured into the top of the Y-tube, filling the entire apparatus to within 0.5 cm of the top (250 beads). A 5-mm NMR tube cap (cat. no. 100-0050, Drummond Scientific, Broomall, Pa.) was fitted into the other end of each glass connection tube, with a hole to allow snug insertion of a 20-cm piece of slender Teflon tubing (0.8 mm inside diameter) for introduction of volatile chemical cues into each arm of the bioassay apparatus. Two techniques were used to introduce candidate chemical cues into the 2 arms of the apparatus: 1 used shell vials as chemical sources, and the other used syringes as chemical sources.
Shell Vial Sources. In this 1st approach (FIG. 34), two 35-ml polyethylene syringes (cat. no. 106-0490, Sherwood Medical, St. Louis, Mo.) were filled with ambient air, and the air was pumped through shell vials containing candidate chemical cues. Glass shell vials (4 ml) with polyethylene caps were used (cat. no. B7785-1, Baxter Healthcare, McGaw Park, Ill.). A 35-ml syringe was snugly connected with slender Teflon tubing (20 cm) to a hole in the cap of the shell vial. A 2nd piece of slender Teflon tubing was used to connect the shell vial to 1 arm of the bioassay apparatus. The 2 syringes used for each bioassay were connected to a syringe pump (Sage Model 355, Fisher Scientific, Pittsburgh, Pa.) that provided an airflow through each shell vial containing a candidate chemical treatment, and subsequently into a choice arm of the bioassay apparatus. For the shell vial sources of candidate chemical compounds, the shell vial containing either a carbonated water dilution or a corn seed or cut corn roots was left open for 5 min to allow the gas concentrations to reach equilibrium. The vial was capped, and the syringe pump was started, providing an airflow of 1.0 ml/min from each syringe.
Syringe Sources. In this 2nd approach (FIG. 39), 35-ml polyethylene syringes were filled directly with candidate chemical cues (such as the headspace from a container of germinating corn, a sample of CO2 mixed with air, or the headspace from a bottle of carbonated water). Each of the 2 syringes was connected with slender Teflon tubing to 1 arm of the bioassay apparatus. The 2 syringes used for each bioassay were connected to a syringe pump that was adjusted to provide an airflow of 1 ml/min from each syringe.
Bioassay Procedure. For bioassays, 20 newly hatched 1st instars (0-12 hours old) were collected from tubs containing eggs in soil (by using a camel's hair brush) and placed in a covered 5-mm NMR cap with 2 holes (1 mm diameter) drilled in the bottom (FIGS. 34 and 39). These holes were temporarily plugged with a piece of wire bent into a U-shape. The open end of the NMR cap was sealed with a small square of cellophane held in place with a plastic tube (a piece of soda straw) that fit snugly over the open end. The Y-tube apparatus was assembled and filled with glass beads and the appropriate treatment and control sources (shell vials or syringes) were connected to the arms of the Y-tube. The syringe pump was set to provide a flow of 1 ml/min and turned on. […]

Structure (SMILES): O=C=O [CO2, carbon dioxide]
- CO2 selective response, equal amounts of CO2 on both sides (1, 2, 5, 10, or 20 mmol/mol both sides): no significant differences in attraction were observed
- larval attraction at high CO2 (300 or 900 mmol/mol CO2): not attracted
- toxic symptoms of larvae at high CO2 (300 or 900 mmol/mol CO2): exhibited toxic symptoms; also recorded: lethargic when removed from the apparatus
- time to recover normal movement (after removal from apparatus, 300 or 900 mmol/mol CO2): 5 to 10 min
- smallest difference between the 2 choices still attractive (base 1 mmol/mol): 0.125 mmol/mol
- CO2 selective response, choice between two concentrations (difference 0.125 mmol/mol): significantly greater attraction was observed to 1.125 mmol/mol than to 1 mmol/mol; also recorded: no difference in attraction was observed in any of the tests at higher concentrations
- CO2 selective response, choice between two concentrations (difference 0.25 mmol/mol): more attracted to the higher CO2 concentration for 1 versus 1.25 mmol/mol (FIG. 48), and for 2 versus 2.25 mmol/mol; also recorded: no difference in attraction was observed for 5 versus 5.25 mmol/mol (FIG. 50), for 10 versus 10.25 (FIG. 51) mmol/mol, or for 20 versus 20.25 mmol/mol
- CO2 selective response, choice between two concentrations (difference 0.50 mmol/mol): no difference in attraction was observed for 20 versus 20.50 mmol/mol
- excess of CO2 concentration over control at which larvae were first attracted (selective response experiments): 12.5%
- highest concentration of CO2 to which the larvae were attracted (versus ambient air control): 100 mmol/mol and 85.60±1.20 mmol/mol
- lowest concentration of CO2 attractive to the larvae (versus ambient air control (0.91-0.99 mmol/mol)): 1.125±0.04 mmol/mol

— patent US20050063956A1, “Method and device for attracting insects” (Colorado State University Research Foundation, priority 1998, published 2005)
